Measurements published in PMC11504387, “Synthesis and Biological Activity Assessment of 2-Styrylbenzothiazoles as Potential Multifunctional Therapeutic Agents” (Antioxidants, 2024).

Experiments:
[1] = tested on: primary human monocytes; assay: Lipid mediator (LM) formation in primary human monocytes; assay type: cell-based; details: diclofenac 1 µM; A23187 2.5 µM, 30 min
Excerpt: Monocytes and polymorphonuclear leukocytes (PMNL) were freshly isolated from human blood. Human blood and leukocyte concentrates were provided by the Institute for Transfusion Medicine of the University Hospital Jena (Thuringia, Germany). The protocols for experiments with human blood and blood cells were approved by the ethical commission of the Friedrich Schiller University of Jena. Following blood density centrifugation and separation of cell populations, peripheral blood mononuclear cells (PBMC) were left to adhere for 1 h to cell culture flasks (monocyte-enriched PBMC). Non-adherent cells were washed off from the adherent monocytes, before pre-incubating monocytes (5 × 10^6 cells/mL) with the test compounds for 10 min at 37 °C. LM formation was elicited with A23187 (2.5 µM) and CaCl2 (1 mM) over 30 min. The reaction was stopped with 1 mL of ice-cold methanol containing 10 µL of deuterium-labelled internal LM standards (200 nM d8-5S-HETE, d4-LTB4, d5-LXA4, d5-RvD2, d4-PGE2 and 10 µM d8-AA). LMs were extracted using Sep-Pak C18 35 cc Vac Cartridges (Waters, Milford, MA, USA) and analysed by UPLC-MS/MS as described by Pein et al..
The ability to modulate LM formation was screened in primary human monocytes expressing the enzymes required for PGE2, LTB4, and 12-HETE production (Figure 2A). Cells were pre-treated with the test compounds BZTst1–6 (10 µM) or the reference COX inhibitor diclofenac (1 µM) for 10 min prior to stimulation with the calcium ionophore A23187 (2.5 µM) for 30 min.

[2] = ORAC assay; assay type: biochemical; details: Trolox equivalents; mean ± SD
Description: The ORAC assay was performed based on the previously modified Hong procedure. The sodium salt of fluorescein (85 nM) was used as a target for free radical attack with 2,2′-azobis(2-amidinopropane) dichloride (AAPH) as a peroxyl radical generator in the final assay mixture (total volume of 0.2 mL). The test involves a calibration curve of Trolox (standard control) with different concentrations (40 to 240 μM). The compounds tested were first dissolved in DMSO:MeOH and then diluted in phosphate buffer solution pH 7.4. Fluorescence measurements were performed at 37 °C and recorded at 5-min intervals up to 30 min after the addition of AAPH. ORAC values were calculated as the difference in areas under the fluorescein quenching curves between the blank and the sample and were expressed as µmol Trolox equivalents (TE) per gram of dried sample.

[3] = DPPH radical scavenging activity; assay type: biochemical; details: values in brackets; mean ± SD
Description: For all the compounds, 0.750 mL of a DMSO-MeOH solution mixed with 1.5 mL of DPPH solution (0.004%) in MeOH was analysed. The samples were kept in the dark at room temperature for 30 min and then analysed with a spectrophotometer by reading the absorbance at 517 nm (lambda max of the absorption spectrum of the DPPH radical). Equation (5) was used to obtain the percentage inhibition (%) of the radical: DPPH radical-scavenging capacity (%) = [1 − (A1 − A2)/A0] × 100%(5) where A2 is the blank (MeOH), and A1 and A0 are, respectively, the recorded absorbances of the sample and control (0.750 MeOH and 1.5 mL DPPH solution), directly proportional to the concentration of residual DPPH. An initial screening was performed by testing all compounds at a concentration of 1 mg/mL (Trolox® was used as the standard); subsequently, compounds showing >90% radical inhibition were further tested to calculate their IC50 value (expressed in µg/mL). Ferulic acid was used as positive control. A linear regression was performed to calculate the sample concentration able to eliminate 50% of DPPH free radicals.

[4] = Ferric reducing antioxidant power (FRAP) test; assay type: biochemical; details: Trolox equivalents; mean ± SD
Description: The FRAP test, based on a colorimetric reaction, can assess the ability of a sample to reduce ferric ions to ferrous ions when complexed with 2,4,6-trispiridyl-s-triazine (TPTZ). The FRAP solution consisted of 0.1 M acetate buffer (pH 3.6), 10 mmol/L of TPTZ in 40 mM HCl and a 20 mM solution of FeCl3, in a 10:1:1 ratio. A 1.9 mL volume of the FRAP solution was incubated with 0.1 mL of the sample solution at 37 °C for 10 min. The absorbance was then read with a UV-Vis spectrophotometer at a wavelength of 593 nm, which corresponds to the maximum absorbance peak of the Fe^2+-TPTZ complex. Trolox® was used as a standard, and ferulic acid was used as positive control, and the results are expressed as µmol TE/g.

[5] = tested on: skin HaCat keratinocytes; assay: Cell growth inhibition assay, HaCat; assay type: cell-based, human; details: 24 h incubation; mean ± SD
Description: Cell growth inhibition analyses were performed on human melanoma Colo38 cells and skin HaCat keratinocytes. Human melanoma Colo38 cells were kindly given by Dr. Patrizio Giacomini (Laboratory of Immunology, Regina Elena Institute, Rome, Italy). HaCat cells were obtained from Istituto Zooprofilattico Sperimentale della Lombardia e dell’Emilia-Romagna, Brescia, Italy. Cells were seeded at 40,000 cells/mL and 25,000 cells/mL, respectively. Colo38 cells were maintained in RPMI 1640, supplemented with 10% foetal bovine serum (FBS), penicillin (100 Units/mL), and streptomycin (100 µg/mL). HaCat cells were maintained in DMEM, supplemented with 10% fatal bovine serum (FBS), penicillin (100 Units/mL), streptomycin (100 µg/mL) and glutamine (2 mM); the incubation was performed at 37 °C in a 5% CO2 atmosphere. Compounds were dissolved in DMSO to obtain 50 mM stock solutions and diluted before cell treatment in MeOH. The tested compounds were added at serial dilutions to the cell cultures (from 0.1 to 100 µM) and incubated for 24 h further. Cells were then harvested, suspended in physiological solution, and counted with a Z2 Coulter Counter (Coulter Electronics, Hialeah, FL, USA). The number of cells/mL and the IC50 values were determined when untreated cells were in the log phase of cell growth. Samples of vehicles and untreated cells were included in each plate. Cisplatin was used as positive control for the HaCat cells, while N1-(4-arylidene)-1H-(2-OH-4-N(Et)2-phenyl)-[d]imidazole-2-carbohydrazide was used as positive control for the Colo38 cell line.

O=C(O)Cc1ccccc1Nc1c(Cl)cccc1Cl [diclofenac, reference compound]
PGE2 formation [1]: significantly downregulated

COc1cc(/C=C/C(=O)O)ccc1O [Ferulic Acid, reference compound]
ORAC [2]: 15,906.40 ± 14.20 µmolTE/g | DPPH IC50 (sample concentration able to scavenge 50% of the DPPH radical) [3]: (9.90 ± 0.70) µg/mL | FRAP [4]: 6872.60 ± 10.70 µmolTE/g

N.N.[Cl][Pt][Cl] [Cisplatin, reference compound]
IC50 [5]: 2000 ± 400 nM
